Columns and labels:
[1] = system: SK-MEL-2; experiment: Cytotoxicity against human SK-MEL-2 cells assessed as cell growth at 10^-5 M after 24 hrs by SRB assay; type: functional; details: SK-MEL-2, 24 h, read-out: Activity
[2] = Cytotoxicity against human TK10 cells assessed as cell growth at 10^-8 M after 24 hrs by SRB assay; type: functional; details: TK-10, 24 h, read-out: Activity
[3] = system: MCF7; experiment: Cytotoxicity against human MCF7 cells assessed as cell growth at 10^-4 M after 24 hrs by SRB assay; type: functional; details: MCF7, 24 h, read-out: Activity
[4] = system: NCI-H322M; experiment: Cytotoxicity against human NCI-H322M cells assessed as cell growth at 10^-6 M after 24 hrs by SRB assay; type: functional; details: read-out: Activity
[5] = Cytotoxicity against human HCT15 cells assessed as cell growth at 10^-5 M after 24 hrs by SRB assay; type: functional; details: HCT-15, 24 h, read-out: Activity
[6] = system: A498; experiment: Cytotoxicity against human A498 cells assessed as cell growth at 10^-5 M after 24 hrs by SRB assay; type: functional; details: A498, 24 h, read-out: Activity
[7] = system: T47D; experiment: Cytotoxicity against human T47D cells assessed as cell growth at 10^-5 M after 24 hrs by SRB assay; type: functional; details: read-out: Activity
[8] = Cytotoxicity against human SF539 cells assessed as cell growth at 10^-4 M after 24 hrs by SRB assay; type: functional; details: SF-539, 24 h, read-out: Activity
[9] = system: M14; experiment: Cytotoxicity against human M14 cells assessed as cell growth at 10^-6 M after 24 hrs by SRB assay; type: functional; details: M14, 24 h, read-out: Activity
[10] = Cytotoxicity against human SF268 cells after 24 hrs by SRB assay; type: functional; details: SF-268, 24 h
[11] = Cytotoxicity against human OVCAR5 cells assessed as cell growth at 10^-6 M after 24 hrs by SRB assay; type: functional; details: OVCAR-5, 24 h, read-out: Activity
[12] = system: SK-MEL-28; experiment: Cytotoxicity against human SK-MEL-28 cells assessed as cell growth at 10^-7 M after 24 hrs by SRB assay; type: functional; details: SK-MEL-28, 24 h, read-out: Activity
[13] = Cytotoxicity against human HL-60(TB) cells assessed as cell growth at 10^-6 M after 24 hrs by SRB assay; type: functional; details: HL-60, 24 h, read-out: Activity
[14] = Cytotoxicity against human OVCAR4 cells after 24 hrs by SRB assay; type: functional; details: OVCAR-4, 24 h
[15] = Cytotoxicity against human LOXIMVI cells assessed as cell growth at 10^-4 M after 24 hrs by SRB assay; type: functional; details: LOX IMVI, read-out: Activity
[16] = Cytotoxicity against human COLO205 cells assessed as cell growth at 10^-8 M after 24 hrs by SRB assay; type: functional; details: COLO 205, 24 h, read-out: Activity
[17] = Cytotoxicity against human LOXIMVI cells after 24 hrs by SRB assay; type: functional, cell-based; details: LOX IMVI
[18] = Cytotoxicity against human SF295 cells assessed as cell growth at 10^-4 M after 24 hrs by SRB assay; type: functional; details: SF-295, 24 h, read-out: Activity
[19] = Cytotoxicity against human HCC2998 cells assessed as cell growth at 10^-7 M after 24 hrs by SRB assay; type: functional; details: HCC 2998, 24 h, read-out: Activity
[20] = system: ACHN; experiment: Cytotoxicity against human ACHN cells assessed as cell growth at 10^-5 M after 24 hrs by SRB assay; type: functional; details: read-out: Activity
[21] = Cytotoxicity against human PC3 cells assessed as cell growth at 10^-4 M after 24 hrs by SRB assay; type: functional; details: PC-3, 24 h, read-out: Activity
[22] = system: NCI-H460; experiment: Cytotoxicity against human NCI-H460 cells assessed as cell growth at 10^-5 M after 24 hrs by SRB assay; type: functional; details: NCI-H460, 24 h, read-out: Activity
[23] = system: A498; experiment: Cytotoxicity against human A498 cells assessed as cell growth at 10^-8 M after 24 hrs by SRB assay; type: functional; details: A498, 24 h, read-out: Activity
[24] = system: SK-MEL-2; experiment: Cytotoxicity against human SK-MEL-2 cells after 24 hrs by SRB assay; type: functional; details: SK-MEL-2, 24 h
[25] = system: 786-0; experiment: Cytotoxicity against human 786-0 cells assessed as cell growth at 10^-4 M after 24 hrs by SRB assay; type: functional; details: 786-0, 24 h, read-out: Activity
[26] = system: EKVX; experiment: Cytotoxicity against human EKVX cells assessed as cell growth at 10^-5 M after 24 hrs by SRB assay; type: functional; details: read-out: Activity
[27] = system: NCI-H460; experiment: Cytotoxicity against human NCI-H460 cells after 24 hrs by SRB assay; type: functional; details: NCI-H460, 24 h
[28] = system: T47D; experiment: Cytotoxicity against human T47D cells assessed as cell growth at 10^-6 M after 24 hrs by SRB assay; type: functional; details: read-out: Activity
[29] = Cytotoxicity against human OVCAR5 cells assessed as cell growth at 10^-7 M after 24 hrs by SRB assay; type: functional; details: OVCAR-5, 24 h, read-out: Activity
[30] = system: NCI-H522; experiment: Cytotoxicity against human NCI-H522 cells after 24 hrs by SRB assay; type: functional, cell-based; details: NCI-H522, 24 h
[31] = Cytotoxicity against human COLO205 cells assessed as cell growth at 10^-4 M after 24 hrs by SRB assay; type: functional; details: COLO 205, 24 h, read-out: Activity
[32] = system: M14; experiment: Cytotoxicity against human M14 cells assessed as cell growth at 10^-8 M after 24 hrs by SRB assay; type: functional; details: M14, 24 h, read-out: Activity
[33] = Cytotoxicity against human SF539 cells after 24 hrs by SRB assay; type: functional, cell-based; details: SF-539, 24 h
[34] = Cytotoxicity against human SF539 cells assessed as cell growth at 10^-6 M after 24 hrs by SRB assay; type: functional; details: SF-539, 24 h, read-out: Activity
[35] = read-out: LC50 (the source's name)
[36] = read-out: pLC50 (the source's name) (converted)

O=C(Nc1cc(-c2cccnc2)nc(NCCCN2CCOCC2)n1)c1cc(Br)cc(C(F)(F)F)c1
growth at 10 µM [1]: 27% | growth at 0.01 µM [2]: 91% | growth at 100 µM [3]: -75% | growth at 1 µM [4]: 91% | growth at 10 µM [5]: -32% | growth at 10 µM [6]: 13% | growth at 10 µM [7]: 21% | growth at 100 µM [8]: -85% | growth at 1 µM [9]: 87% | GI50 ([10]; read-out: GI50): 2.63 µM | CC50 [10, 35]: 37.8 µM | TGI ([10]; read-out: TGI): 10.4 µM | GI50 ([10]; read-out: pGI50 (converted)): 2.63 µM | CC50 [10, 36]: 38 µM | TGI ([10]; read-out: pTGI (converted)): 10.5 µM | growth at 1 µM [11]: 92% | growth at 0.1 µM [12]: 91% | growth at 1 µM [13]: 88% | GI50 ([14]; read-out: GI50): 3.26 µM | CC50 [14, 35]: 39.9 µM | TGI ([14]; read-out: TGI): 14.5 µM | GI50 ([14]; read-out: pGI50 (converted)): 3.24 µM | CC50 [14, 36]: 39.8 µM | TGI ([14]; read-out: pTGI (converted)): 14.5 µM | growth at 100 µM [15]: -93% | growth at 0.01 µM [16]: 104% | IC50 [17]: 1.62 µM | GI50 ([17]; read-out: GI50): 1.62 µM | CC50 [17, 35]: 5.79 µM | TGI ([17]; read-out: TGI): 3.06 µM | GI50 ([17]; read-out: pGI50 (converted)): 1.62 µM | CC50 [17, 36]: 5.75 µM | TGI ([17]; read-out: pTGI (converted)): 3.09 µM | growth at 100 µM [18]: -92% | growth at 0.1 µM [19]: 100% | growth at 10 µM [20]: 5% | growth at 100 µM [21]: -93% | growth at 10 µM [22]: -5% | growth at 0.01 µM [23]: 91% | GI50 ([24]; read-out: GI50): 4.52 µM | CC50 [24, 35]: 45.8 µM | TGI ([24]; read-out: TGI): 17 µM | GI50 ([24]; read-out: pGI50 (converted)): 4.47 µM | CC50 [24, 36]: 45.7 µM | TGI ([24]; read-out: pTGI (converted)): 17 µM | growth at 100 µM [25]: -87% | growth at 10 µM [26]: 17% | GI50 ([27]; read-out: GI50): 2.97 µM | CC50 [27, 35]: 44.1 µM | TGI ([27]; read-out: TGI): 8.94 µM | GI50 ([27]; read-out: pGI50 (converted)): 2.95 µM | CC50 [27, 36]: 43.7 µM | TGI ([27]; read-out: pTGI (converted)): 8.91 µM | growth at 1 µM [28]: 88% | growth at 0.1 µM [29]: 92% | IC50 [30]: 1.95 µM | GI50 ([30]; read-out: GI50): 1.95 µM | CC50 [30, 35]: 23.3 µM | TGI ([30]; read-out: TGI): 5.31 µM | GI50 ([30]; read-out: pGI50 (converted)): 1.95 µM | CC50 [30, 36]: 23.4 µM | TGI ([30]; read-out: pTGI (converted)): 5.37 µM | growth at 100 µM [31]: -88% | growth at 0.01 µM [32]: 94% | GI50 ([33]; read-out: GI50): 1.67 µM | CC50 [33, 35]: 7.2 µM | TGI ([33]; read-out: TGI): 3.47 µM | GI50 ([33]; read-out: pGI50 (converted)): 1.66 µM | CC50 [33, 36]: 7.24 µM | TGI ([33]; read-out: pTGI (converted)): 3.47 µM | growth at 1 µM [34]: 85%

From ChEMBL document CHEMBL3774345, “Synthesis of new diarylamides with pyrimidinyl pyridine scaffold and evaluation of their anti-proliferative effect on cancer cell lines” (Bioorg Med Chem Lett, 2016)
